Reference: publication PMC10412865 (Current Research in Toxicology, 2023)
Where a name gives a salt, the structure may show the parent alone. Read-outs that look alike come from different tables or passages of the source.

Assays:
[1] = test system: CYP3A4 activity in HepaRG cells; details: 48 h
[2] = test system: CYP1A2 activity in HepaRG cells; experiment: CYP1A2 enzyme activity in differentiated HepaRG monolayers; format: cell-based, human; details: HepaRG, 48 h
human recombinant CYP3A4 = human recombinant CYP3A4 (Homo sapiens, UniProt P08684); experiment: Human recombinant CYP3A4 Supersome inhibition assay; format: biochemical
human recombinant CYP2E1 = human recombinant CYP2E1 (Homo sapiens, UniProt P05181); experiment: Human recombinant CYP2E1 Supersome inhibition assay; format: biochemical
human recombinant CYP2B6 = target: T1, human recombinant CYP2B6 (Homo sapiens, UniProt P20813); experiment: Human recombinant CYP2B6 Supersome inhibition assay; format: biochemical
T1 sequence (P20813 1-491): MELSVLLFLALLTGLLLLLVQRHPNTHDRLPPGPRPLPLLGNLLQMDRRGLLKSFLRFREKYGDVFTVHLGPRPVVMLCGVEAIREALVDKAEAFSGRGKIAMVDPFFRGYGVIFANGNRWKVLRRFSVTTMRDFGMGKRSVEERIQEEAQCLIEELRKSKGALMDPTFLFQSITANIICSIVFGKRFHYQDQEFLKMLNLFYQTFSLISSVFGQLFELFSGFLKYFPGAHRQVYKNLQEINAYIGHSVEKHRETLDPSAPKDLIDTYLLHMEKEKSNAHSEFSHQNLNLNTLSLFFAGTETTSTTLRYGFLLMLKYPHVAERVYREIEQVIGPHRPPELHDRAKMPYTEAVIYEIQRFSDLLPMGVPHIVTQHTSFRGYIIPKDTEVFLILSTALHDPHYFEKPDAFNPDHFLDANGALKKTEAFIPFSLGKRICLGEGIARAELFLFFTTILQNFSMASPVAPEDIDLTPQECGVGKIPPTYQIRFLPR

human recombinant CYP1A2 = target: T2, human recombinant CYP1A2 (Homo sapiens, UniProt P05177); experiment: Human recombinant CYP1A2 Supersome inhibition assay; format: biochemical
T2 sequence (P05177 1-516): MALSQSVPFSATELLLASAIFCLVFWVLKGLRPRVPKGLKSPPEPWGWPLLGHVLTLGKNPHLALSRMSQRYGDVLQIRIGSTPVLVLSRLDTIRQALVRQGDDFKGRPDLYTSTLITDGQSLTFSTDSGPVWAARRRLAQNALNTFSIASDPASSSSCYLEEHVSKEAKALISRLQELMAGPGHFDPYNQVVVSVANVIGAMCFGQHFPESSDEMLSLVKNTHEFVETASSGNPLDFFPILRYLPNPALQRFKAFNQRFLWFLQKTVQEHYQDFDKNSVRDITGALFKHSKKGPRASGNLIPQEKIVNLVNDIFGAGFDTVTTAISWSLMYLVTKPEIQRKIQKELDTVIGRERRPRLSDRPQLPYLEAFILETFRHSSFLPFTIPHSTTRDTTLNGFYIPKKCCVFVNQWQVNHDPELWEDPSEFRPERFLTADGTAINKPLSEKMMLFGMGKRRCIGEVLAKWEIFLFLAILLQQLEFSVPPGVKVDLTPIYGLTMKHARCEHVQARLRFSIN

[3] = humans, estimated average; ref Olsen et al. 2007; cited from earlier work
[4] = target: human recombinant CYP2C19 (Homo sapiens, UniProt P33261); experiment: Human recombinant CYP2C19 Supersome inhibition assay; format: biochemical
CYP1A2 = CYP1A2 enzyme activity in differentiated HepaRG monolayers; format: cell-based, human; details: human, differentiated HepaRG cell monolayers, probe luciferin-1A2 (6 µM)
[5] = 1 nM PFAS in binary mixture with 10 µM rifampicin
[6] = 1 µM PFAS in binary mixture with 10 µM rifampicin
[7] = 1 nM PFAS in binary mixture with 10 µM BaP
[8] = 1 µM PFAS in binary mixture with 10 µM BaP

human recombinant CYP3A4, sequence (P08684 whole entry): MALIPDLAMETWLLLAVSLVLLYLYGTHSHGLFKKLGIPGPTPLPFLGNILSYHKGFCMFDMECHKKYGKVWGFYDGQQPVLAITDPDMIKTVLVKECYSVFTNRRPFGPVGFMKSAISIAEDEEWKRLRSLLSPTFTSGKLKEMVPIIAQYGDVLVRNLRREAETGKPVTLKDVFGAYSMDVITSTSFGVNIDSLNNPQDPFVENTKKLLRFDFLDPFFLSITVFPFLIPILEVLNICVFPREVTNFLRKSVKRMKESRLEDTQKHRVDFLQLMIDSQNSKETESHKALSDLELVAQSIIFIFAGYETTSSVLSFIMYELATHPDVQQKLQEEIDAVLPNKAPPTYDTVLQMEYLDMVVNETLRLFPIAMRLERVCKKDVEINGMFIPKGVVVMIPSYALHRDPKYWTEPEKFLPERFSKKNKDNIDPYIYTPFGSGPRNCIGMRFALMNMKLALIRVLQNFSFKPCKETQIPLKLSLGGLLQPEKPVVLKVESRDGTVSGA
human recombinant CYP2E1, sequence (P05181 whole entry): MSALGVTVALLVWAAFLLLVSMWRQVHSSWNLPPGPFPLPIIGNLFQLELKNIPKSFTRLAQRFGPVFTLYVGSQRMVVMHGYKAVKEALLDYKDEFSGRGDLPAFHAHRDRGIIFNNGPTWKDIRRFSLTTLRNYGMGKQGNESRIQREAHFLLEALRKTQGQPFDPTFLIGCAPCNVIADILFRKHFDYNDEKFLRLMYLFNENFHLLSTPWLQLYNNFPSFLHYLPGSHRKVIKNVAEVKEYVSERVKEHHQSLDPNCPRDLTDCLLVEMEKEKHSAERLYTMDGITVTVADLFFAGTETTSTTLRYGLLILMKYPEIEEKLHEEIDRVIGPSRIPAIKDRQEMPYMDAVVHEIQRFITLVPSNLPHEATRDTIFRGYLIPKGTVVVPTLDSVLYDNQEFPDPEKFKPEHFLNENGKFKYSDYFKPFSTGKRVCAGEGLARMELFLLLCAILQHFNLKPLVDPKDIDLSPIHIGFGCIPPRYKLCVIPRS
human recombinant CYP2C19, sequence (P33261 whole entry): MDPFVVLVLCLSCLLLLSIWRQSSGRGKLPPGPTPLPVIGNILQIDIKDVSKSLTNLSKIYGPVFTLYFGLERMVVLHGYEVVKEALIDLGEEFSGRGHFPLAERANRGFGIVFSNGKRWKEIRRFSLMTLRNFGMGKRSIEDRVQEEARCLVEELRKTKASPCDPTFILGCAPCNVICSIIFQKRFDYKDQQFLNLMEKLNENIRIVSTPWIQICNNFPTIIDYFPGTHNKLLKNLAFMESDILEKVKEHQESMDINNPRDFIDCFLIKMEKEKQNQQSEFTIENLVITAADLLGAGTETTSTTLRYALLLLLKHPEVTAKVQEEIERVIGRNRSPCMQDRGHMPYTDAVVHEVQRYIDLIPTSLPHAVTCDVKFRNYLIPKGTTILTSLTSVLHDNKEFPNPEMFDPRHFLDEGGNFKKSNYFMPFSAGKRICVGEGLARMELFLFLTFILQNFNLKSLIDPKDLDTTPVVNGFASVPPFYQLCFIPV

SMILES | CYP3A4 activity (% of the solvent control) ([1]; 1 nM PFAS alone) | CYP3A4 activity (% of the solvent control) [1, 5] | CYP3A4 activity (% of the solvent control) ([1]; 1 µM PFAS alone) | CYP3A4 activity (% of the solvent control) [1, 6] | CYP1A2 activity (% of the solvent control) ([2]; 1 nM PFAS alone) | CYP1A2 activity (% of the solvent control) [2, 7] | CYP1A2 activity (% of the solvent control) ([2]; 1 µM PFAS alone) | CYP1A2 activity (% of the solvent control) [2, 8] | IC50 (human recombinant CYP3A4) [µM] | IC50 (human recombinant CYP2E1) [µM] | IC50 (human recombinant CYP2B6) [µM] | IC50 (human recombinant CYP1A2) [µM] | half-life of serum elimination [3] [years] | IC50 [4] [µM] | activity at 48 h, 1 nM (CYP1A2) [%] | activity at 48 h, 1 µM (CYP1A2) [%]
OCCC(F)(F)C(F)(F)C(F)(F)C(F)(F)C(F)(F)C(F)(F)F [6:2 FTOH, 6:2 Fluorotelomer alcohol] | no statistically significant differences | not statistically different from the inducer nor the solvent control | no statistically significant differences | not statistically different from the inducer nor the solvent control | 168.4% | lower | 148.4% | lower |  |  |  |  |  |  |  | 
O=C(O)C(F)(F)C(F)(F)C(F)(F)C(F)(F)C(F)(F)C(F)(F)C(F)(F)F [PFOA, Perfluorooctanoic acid] |  |  |  |  |  |  |  |  | > 100 | > 100 | 96.9 | > 100 | 3.5 | > 100 |  | 
O=C(O)C(F)(OC(F)(F)C(F)(F)C(F)(F)F)C(F)(F)F (centres unmarked) [HFPO-DA, Undecafluoro-2-methyl-3-oxahexanoic acid] |  | did not influence the CYP3A4 activity |  | did not influence the CYP3A4 activity | neither concentration of HFPO-DA nor PFHxS had a significant effect | decreased activity | neither concentration of HFPO-DA nor PFHxS had a significant effect | decreased activity |  |  |  |  |  |  |  | 
O=S(=O)(O)C(F)(F)C(F)(F)C(F)(F)C(F)(F)F [PFBS, Perfluorobutanesulfonic acid] |  | concentration-dependent decrease |  |  | 205.4% | 130.9% | 204.4% | 128.5% |  |  |  |  |  |  |  | 
O=C(O)C(F)(F)C(F)(F)C(F)(F)C(F)(F)C(F)(F)F [PFHxA, Perfluorohexanoic acid] |  |  |  | not in those exposed to the higher (1 µM) concentrations | increased CYP1A2 activity | no significant differences | increased CYP1A2 activity | no significant differences |  |  |  |  |  |  |  | 
O=S(=O)(O)C(F)(F)C(F)(F)C(F)(F)C(F)(F)C(F)(F)C(F)(F)F [PFHxS, Perfluorohexanesulfonic acid potassium salt] |  | significantly lower relative to rifampicin alone |  | significantly lower relative to rifampicin alone | no significant differences |  | no significant differences |  | > 100 | > 100 | > 100 | 13.8 |  | 51.6 | 80.2 | 122
